Columns and labels:
Amaranthus retroflexus = experiment: Greenhouse post-emergence herbicidal test; type: in vivo
From the text: (§1) The seeds of the test plants were sown separately for each species. For the post-emergence treatment, the test plants were first grown to a height of 3 to 15 cm, depending on the plant habit, and only then treated with the active compounds which had been suspended or emulsified in water. For this purpose, the test plants were either sown directly and grown in the same containers, or they were first grown separately as seedlings and transplanted into the test containers a few days prior to treatment. […] (active substance). Depending on the species, the plants were kept at 10-25° C. or 20-35° C. The test period extended over 2 to 4 weeks. During this time, the plants were tended, and their response to the individual treatments was evaluated. Evaluation was carried out using a scale from 0 to 100. 100 means no emergence of the plants, or complete destruction of at least the aerial parts, and 0 means no damage, or normal course of growth. The plants used in the greenhouse experiments belonged to the following species: [table]

Chenopodium album = experiment: Greenhouse post-emergence herbicidal test; type: in vivo
From the text: as §1

Setaria viridis = experiment: Greenhouse post-emergence herbicidal test; type: in vivo; conditions: application rate 1 kg/ha
From the text: The seeds of the test plants were sown separately for each species. For the post-emergence treatment, the test plants were first grown to a height of 3 to 15 cm, depending on the plant habit, and only then treated with the active compounds which had been suspended or emulsified in water. For this purpose, the test plants were either sown directly and grown in the same containers, or they were first grown separately as seedlings and transplanted into the test containers a few days prior to treatment. The rate of application for the post-emergence treatment was 1.0 kg/ha of a.s. (active substance). Depending on the species, the plants were kept at 10-25° C. or 20-35° C. The test period extended over 2 to 4 weeks. During this time, the plants were tended, and their response to the individual treatments was evaluated. Evaluation was carried out using a scale from 0 to 100. 100 means no emergence of the plants, or complete destruction of at least the aerial parts, and 0 means no damage, or normal course of growth. The plants used in the greenhouse experiments belonged to the following species: [table]

Galium aparine = experiment: Greenhouse post-emergence herbicidal test; type: in vivo; conditions: application rate 0.25 kg/ha
From the text: as §1

Structure (SMILES)	post-emergence action against Amaranthus retroflexus (Amaranthus retroflexus; application rate 1 kg/ha)	post-emergence action against Chenopodium album (Chenopodium album; application rate 1 kg/ha)	melting point	post-emergence action against Setaria viridis (Setaria viridis)	post-emergence action against Amaranthus retroflexus (Amaranthus retroflexus; application rate 0.25 kg/ha)	post-emergence action against Chenopodium album (Chenopodium album; application rate 0.25 kg/ha)	post-emergence action against Galium aparine (Galium aparine)
CNC(=O)C(NC(=O)c1cn(C)nc1C(F)(F)F)C(CO)c1ccccc1 (racemic) [Compound 3.1, N-(3-hydroxy-1-methylcarbamoyl-2-phenyl-propyl)-1-methyl-3-trifluoromethyl-1H-pyrazole-4-carboxamide]	very good	very good	194 °C	very good			
CNC(=O)C(NC(=O)c1cn(C)nc1C(F)(F)F)C(CO)c1ccccc1 (racemic) [Compound 3.2, N-(3-hydroxy-1-methylcarbamoyl-2-phenyl-propyl)-1-methyl-3-trifluoromethyl-1H-pyrazole-4-carboxamide]	very good	very good	202 °C	very good			
CNC(=O)[C@@H](NC(=O)c1cn(C)nc1C(F)(F)F)[C@H](CN)c1ccccc1 (racemic) [Compound 4.5, N-{(1RS,2RS)-3-Amino-1-[(methylamino)carbonyl]-2-phenylpropyl}-1-methyl-3-(trifluoromethyl)-1H-pyrazole-4-carboxamide]			91 °C				
CNC(=O)[C@H](NC(=O)c1cn(C)nc1C(F)(F)F)[C@H](CNC(=O)C(F)(F)F)c1ccccc1 (racemic) [Compound 4.17, 1-Methyl-N-{(1RS,2SR)-1-[(methylamino)carbonyl]-2-phenyl-3-(2,2,2-trifluoroacetylamino)propyl}-3-(trifluoromethyl)-1H-pyrazole-4-carboxamide]			233 °C				
CNC(=O)[C@H](NC(=O)c1cn(C)nc1C(F)(F)F)[C@H](C[N+](=O)[O-])c1ccccc1 (racemic) [Compound 5.3, 1-Methyl-N-{(1RS,2SR)-1-[(methylamino)carbonyl]-3-nitro-2-phenylpropyl}-3-(trifluoromethyl)-1H-pyrazole-4-carboxamide]			119 °C		very good	very good	very good
CNC(=O)C(NC(=O)c1cn(C)nc1C(F)(F)F)C(COC(C)=O)c1ccccc1 (single isomer, unassigned) [Compound 3.7, 3-Methylcarbamoyl-3-[(1-methyl-3-trifluoromethyl-1H-pyrazole-4-carbonyl)amino]-2-phenylpropyl Acetate]	very good	very good		very good			

Source: patent US20090186766A1, “Heteroaroyl-Substituted Alanines with a Herbicidal Action” (BASF SE, priority 2006, published 2009)
